Reference: patent US6911450B1, “Pyrimidine acyclonucleoside derivatives, preparation method and use thereof” (Universite de Geneve, priority 2001, dated 2005)
Where two headings read alike, the source gives them in different places.

What was measured:
[1] = test system: HIV-1 lai strain; assay: Anti-HIV test on PBMC, viral replication measured by Reverse Transcriptase (RT) activity in culture supernatants; type: cell-based; details: for IC50 / IC90: Human immunodeficiency virus 1, 168 h, against HIV-Lai on PBMC, 7 days, RT activity assay; for activity relative to that of its congeners or of its rivals: from Table 1
Experimental: The object of the screening is to evaluate the antiretroviral activity of the compounds of the present invention and of the Comparative Compounds on the HIV-1 lai strain cultivated on peripheral blood mononucleated cells (PBMC). For this purpose, the test compounds were incubated for seven days (duration of the anti-HIV test) with the PBMC in exponential phase of growth. The ability of the compounds to inhibit the viral replication was then measured in the culture supernatants either by an assay of the “Reverse Transcriptase” (RT) activity with the kit RetroSys TR (INNOVAGEN) or by an assay of the protein P24 with the kit Innotest HIV Antigen mAb Screening (IMMUNOGENETICS). The concentrations of the test compound causing 50 and 90% inhibition of the viral replication were determined. It concerns inhibition concentrations IC50 and IC90, respectively. The PBMC were isolated as described in Ulmer and col., Immunobiology, 166(3), 238-250 (1984) from a healthy donor by a Ficoll gradient (Nicomed Pharma AS). The PBMC were activated with phytohemagglutinine for three days and then cultivated in a 96-well plate, in a base medium (RPMI) supplemented with recombinant human Interleukin-2. Throughout the culture, the cells were maintained at 37° C., in an atmosphere saturated in humidity, and under 5% CO2. The PBMC were pre-treated for one hour in the presence of the test compounds at various concentrations, and then infected with 100 TCID50 of HIV-1-Lai [S. Wain-Hobson and col., Science 17, 252 (5008): 961-965 (1991)]. Three days after the infection with HIV-1, the half of the culture medium was changed and, at the day 7, the supernatants were taken and frozen at −20° C. Then, the viral replication was measured: a) by assaying the “Reverse Transcriptase” (RT) activity in the culture supernatants by means of the kit RetroSys (Innovagen). The RT contained in the supernatant synthesizes, in the presence of bromodeoxyuridine triphosphate (BrdUTP), a complementary strand DNA to a matrix immobilized on the bottom of the wells of a 96-well plate. The incorporation of BrdU is quantified by the fixation of an antibody anti-BrdU conjugated to the alkaline phosphatase. The activity of the attached alkaline phosphatase, measured by colorimetry, is proportional to the RT activity in the culture supernatant. The results described below are the results of at least two experiments which are distinct and carried out in triplicate.

[2] = Cytotoxicity assay revealed by MTT after seven days of culture; type: cell-based, human; details: human, PBMC, 50% diminution of growth and viability
Experimental: (§1) Concurrently to the screening, and in the same conditions, cytotoxicity assays of the test compounds were carried out.
(§2) This assay has allowed to determine the concentration of the product causing a diminution of 50% of the growth and the viability of PBMC (CC50).
(§3) The PBMC were isolated as described in Ulmer and col., Immunobiology, 166(3), 238-250 (1984) from a healthy donor by a Ficoll gradient (Nicomed Pharma AS).
(§4) The PBMC were activated with phytohemagglutinine for three days and then cultivated in a 96-well plate, in a base medium (RPMI) supplemented with recombinant human Interleukin-2.
(§5) Throughout the culture, the cells were maintained at 37° C., in an atmosphere saturated in humidity, and under 5% CO2.

[3] = test system: HIV-1; details: cited from earlier work; for activity against HIV-1: prior art
[4] = Combination test with AZT, ddI and ddC; type: cell-based
[5] = test system: Bone marrow cells of Balb/c mice; assay: Toxicity test on bone marrow cells (proliferation by Trypan blue count, differentiation by flow cytometry); type: cell-based; details: for cell proliferation / proportions of lymphocytes B, myelocytes, neutrophiles and macrophages induced by the cytokines: mouse bone marrow cells, 5 days; for cell proliferation: 1×10^−12 to 1×10^−5 M, versus absence of compound; for proportions of lymphocytes B, myelocytes, neutrophiles and macrophages induced by the cytokines: whatever the concentration, presence versus absence of compound
Experimental: Toxicity tests of Compounds No. 3 and 5 of the present invention were further carried out on bone marrow cells according to the following working method. Bone marrow cells of Balb/c mice were cultivated at the rate of 5×10^5 cells/ml in cultures of 1 ml in RPMI 1640 medium supplemented with 1 mM glutamine, 10% fetal calf serum, penicillin and streptomycin (GIBCO, USA). The cells were stimulated by addition of 1 ng/ml of Stem cell factor (c-kit ligand), IL3 and GM-CSF (Pharmingen, USA) in the presence of increasing concentrations of the Compounds 3 and 5 of the present invention ranging from 1×10^−12 to 1×10^−5 M. After 5 days of culture at 37° C., 5% CO2, the cells were recovered. The proliferation was evaluated by numeration of living cells in the presence of Trypan blue. The differentiation of the cells was evaluated by Flow Cytometry (Facs-Calibur, BECTON DICKINSON, USA) by double labeling of the cells with antibodies anti-CD38 conjugated with phycoerythrine (PE), anti-Gr1 conjugated with fluoresceine 5 (Fl), anti-Gr1-PE and anti-CD11b-Fl (Pharmingen, USA).

[6] = test system: PBMC; assay: Cytotoxicity assay revealed by MTT after seven days of culture; type: cell-based, human; details: 7 days, 50% diminution of growth and viability
Experimental: as §1, §2, §3, §4, §5

Row | Structure (SMILES) | melting point [°C] | IC50 [1] [nM] | IC90 [1] [nM] | CC50 at 7 days [2] [nM] | further results
1 | CCc1c(Cc2ccccc2)n(COCCN(O)C(N)=O)c(=O)[nH]c1=O [Comparative 3, 1-(2-N^1-hydroxyureidoethyloxymethyl)-6-benzyl-5-ethyluracile] | 276 to 277 | 70 | – | > 250000 | IC50 ([3]; against HIV-1, prior art): 70 nM; activity against HIV-1 [3]: only very moderately active
2 | CCOCn1c(Cc2ccccc2)c(C(C)C)c(=O)[nH]c1=O [Comparative 4, 1-ethyloxymethyl-6-benzyl-5-isopropyluracil, reference compound] | – | 2 | – | > 30000 | –
3 | CC(=O)ON(CCCOCn1c(Cc2cc(C)cc(C)c2)c(C(C)C)c(=O)[nH]c1=O)C(N)=O [Compound 4, 1-(3-N^1-acetoxyureidopropyloxymethyl)-6-(3,5-dimethylbenzyl)-5-isopropyluracile] | 77 to 79 | 0.03 | 0.6 | 30000 | –
4 | Cc1cc(C)cc(Cc2c(C(C)C)c(=O)[nH]c(=O)n2COCCCN(OC(=O)C(C)(C)C)C(N)=O)c1 [Compound 5, 1-(3-N^1-pivaloyloxyureidopropyloxymethyl)-6-(3,5-dimethylbenzyl)-5-isopropyluracil] | – | – | – | – | activity relative to that of its congeners or of its rivals [1]: 1,000,000 times; toxic effects on bone marrow cells of mice [5]: no significant toxic effects; cell proliferation [5]: identical to the one observed in the absence; proportions of lymphocytes B, myelocytes, neutrophiles and macrophages induced by the cytokines [5]: identical in the presence or in the absence; CC50 [6]: 65000 nM
5 | Cc1cn(C(C)OCCN(O)C(N)=O)c(=O)[nH]c1=O (stereo not shown) [Formula B] | – | – | – | – | activity against HIV-1 [3]: totally inactive

Now from value to compound, other results behind:

Row | melting point [°C] | IC50 [1] [nM] | IC90 [1] [nM] | Structure (SMILES) | CC50 at 7 days [2] [nM] | further results
6 | 147 to 148 | 0.92 | 15 | CCc1c(Cc2cc(C)cc(C)c2)n(COCCN(O)C(N)=O)c(=O)[nH]c1=O [Comparative 1, 1-(2-N^1-hydroxyureidoethyloxymethyl)-6-(3,5-dimethylbenzyl)-5-ethyluracil] | > 500000 | –
7 | 148 to 150 | 2.3 | 30 | CCc1c(Cc2cc(C)cc(C)c2)n(COCCCCN(O)C(N)=O)c(=O)[nH]c1=O [Comparative 2, 1-(4-N^1-hydroxyureidobutyloxymethyl)-6-(3,5-dimethylbenzyl)-5-ethyluracil] | > 50000 | –
8 | – | 2.3 | 9 | CCc1c(Cc2cc(C)cc(C)c2)n(COCCCNC(=O)NO)c(=O)[nH]c1=O [Compound 1, 1-(3-N^3-hydroxyureidopropyloxymethyl)-6-(3,5-dimethylbenzyl)-5-ethyl-uracil] | 260000 | –
9 | 165 to 167 | 0.24 | 1.7 | CCc1c(Cc2cc(C)cc(C)c2)n(COCCCN(O)C(N)=O)c(=O)[nH]c1=O [Compound 2, 1-(3-N1-hydroxyureidopropyloxymethyl)-6-(3,5-dimethylbenzyl)-5-ethyl-uracil] | > 300000 | synergy with AZT, ddI and ddC [4]: exhibited a synergy
10 | 88 to 90 | – | 0.0039 | Cc1cc(C)cc(Cc2c(C(C)C)c(=O)[nH]c(=O)n2COCCCN(O)C(N)=O)c1 [Compound 3, 1-(3-N^1-hydroxyureidopropyloxymethyl)-6-(3,5-dimethylbenzyl)-5-isopropyluracil] | 220000 | activity relative to that of its congeners or of its rivals [1]: 100,000 times; toxic effects on bone marrow cells of mice ([5]; even at concentrations 1×10^6 time higher than those inhibiting HIV replication in human lymphocytes in vitro): no significant toxic effects; cell proliferation [5]: identical to the one observed in the absence; proportions of lymphocytes B, myelocytes, neutrophiles and macrophages induced by the cytokines [5]: identical in the presence or in the absence
